Reference: US7297794B2, “Phenoxy amine compounds and compositions for delivering active agents” (Emisphere Technologies, Inc., priority 2001, dated 2007)
Several values for one entry are separate records, joined by “and”; a condition that tells them apart may be missing. Equal values may be shown once. Where a name gives a salt, the structure may show the parent alone.

Assay: Insulin - Oral Delivery (glucose levels in serum after oral dosing of delivery agent compound with human zinc insulin)
Format: in vivo, Male Sprague-Dawley rats
Conditions: rat, delivery agent compound 200 mg/kg + insulin 0.5 mg/kg, volume dose 2 ml/kg
Experimental: Oral dosing (PO) compositions of delivery agent compound and human zinc insulin (minimum 26 IU/mg available from Calbiochem-Novabiochem Corp, La Jolla, Calif.) were prepared in deionized water. Typically, 500 mg of delivery agent compound was added to 1.5 ml of water. The solution was vortexed, then heated (about 37° C.) and sonicated. The pH was adjusted to about 7 to 8.5 with NaOH or HCl. Additional NaOH was added, if necessary, to achieve uniform solubility, and the pH re-adjusted to about 7 to 8.5. Water was then added to bring the total volume to about 2.4 ml and vortexed. About 1.25 mg insulin from an insulin stock solution ([…] made from 0.5409 g insulin and 18 ml deionized water, adjusting with HCl and NaOH to pH 8.15 and to obtain a clear solution using […]) was added to the solution and mixed by inverting. The solution may be used in the dosing protocol immediately, or alternatively, the solution may be placed into a 37° C. water bath for one hour prior to dosing. The final delivery agent compound dose, insulin dose and dose volume amounts are listed below in Table 1.
The typical dosing and sampling protocols were as follows. […] A dosing group of five animals was administered one of the dosing solutions. […] The dosing solution was administered by pressing the syringe plunger.

Compound	Glucose Levels in Serum (% change from baseline ± SD)
4-(4-(2-hydroxyphenoxy)butyl)morpholinium Citrate [Compound 7]	−11.7 ± 3.4%
Oc1ccccc1OCCCCCCCCN1CCOCC1 [Compound 1, 4-8-(2-hydroxyphenoxy) octylmorpholine]	−5.9 ± 4.6% and 0.3 ± 8.2%
OCCN(CCO)CCCCCCCCOc1ccccc1O [Compound 2, 8-(2-hydroxyphenoxy) octyldiethanolamine) citrate]	−10.8 ± 6.8%
Oc1ccccc1OCCCCCCCN1CCOCC1 [Compound 3, 7-(4-(2hydroxyphenoxy)heptylmorpholinium citrate]	−9.8 ± 4%
Oc1ccc(OCCCCCCN2CCOCC2)cc1 [Compound 4]	−2.3 ± 10.6%
NCCCCCCCCOc1ccc(O)cc1 [Compound 6, 8-(4-hydroxyphenoxy)octanamine]	6.4 ± 17.1%
CC(=O)c1ccccc1OCCCCCCN(C)C.Cl [Compound 8, 6-(2-acetylphenoxy)-1-dimethylaminohexane hydrochloride]	−8.2 ± 9.5%

Assay: Oral BIBN4096BS Delivery (peak BIBN4096BS concentration after oral gavage with delivery agent compound)
Conditions: rat, delivery agent compound 200 mg/kg + BIBN4096BS 25 mg/kg, 1 ml/kg
Experimental: Oral gavage (PO) dosing solutions of delivery agent compound and the calcitonin gene-related peptide antagonist, 1-piperidinecarboxamide, N-[2-[[5-amino-1-[[4-(4-pyridinyl)-1-piperazinyl)carbonyl]pentyl]amino]-1-[(3,5-dibromo-4-hydroxyphenyl)methyl]-2-oxoethyl]-4(1,4-dihydro-2-oxo-3(2H0-quinazolinyl)-. [R—(R*,S*)]- (BIBN4096BS) in water were prepared. […] The final dosing solutions were prepared by mixing the delivery agent compound with a BIBN4096BS stock solution and diluting to the desired volume (usually 1.0 mL). If necessary, the pH of the mixture was adjusted by the addition of aliquots of aqueous hydrochloric acid solution of an appropriate normality until the final pH of the dissolved delivery agent compound was below 7.0. The final compound amounts per dose were 25 mg/kg of BIBN4096BS and 200 mg/kg of delivery agent compound in a total volume of 1 mL/kg.
The typical dosing and sampling protocols were as follows. Male Sprague-Dawley rats weighing between 200-250 g were fasted for 24 hours and administered ketamine (44 mg/kg) and chlorpromazine (1.5 mg/kg) 15 minutes prior to dosing. A dosing group of five rats was administered one of the dosing solutions. […] Plasma BIBN4096BS concentrations were quantified by using a liquid chromatography/mass spectrometry/mass spectrometry assay method using UV detection. […]

Mean Peak Serum ± sd ng/ml (BIBN4096BS)	Compound
408 ± 340 ng/mL and 608 ± 552 ng/mL	CS(=O)(=O)O.Oc1ccccc1OCCCCCCCCN1CCOCC1 [1 (Mesylate), (4-(8-(2-hydroxyphenoxy)octyl)morpholine)mesylate]

Assay: not given
Conditions: not given

melting point [°C]	Compound
137 to 139	Oc1ccccc1OCCCCCCCCN1CCOCC1 (as salt: salt) [Compound 1, 4-8-(2-hydroxyphenoxy) octylmorpholine]
138 to 141	CC(=O)c1ccccc1OCCCCCCN(C)C.Cl [Compound 8, 6-(2-acetylphenoxy)-1-dimethylaminohexane hydrochloride]
